The source of these data is patent publication US20100204487A1, “PROCESS FOR MAKING THIOPHENE CARBOXAMIDE DERIVATIVES” (priority 2007, published 2010).

The nature of series [1]: pharmacokinetics / bioavailability of free acid and salts of the compound of Formula I. Particulars: free acid.
For series [2] the following is noted: in vivo.

The structures appear in SMILES notation. Where a name gives a salt, the structure may show the parent alone.

Regarding `Cc1sc(C)c(C(=O)NC2(c3ccc(C(=O)O)cc3)CC2)c1Cc1ccc(C(F)(F)F)cc1` [free acid of Formula I], in series [1], the bioavailability entry is on record as “poorly bioavailable”. With `Cc1sc(C)c(C(=O)NC2(c3ccc(C(=O)O)cc3)CC2)c1Cc1ccc(C(F)(F)F)cc1` [Et2NH salt, 4-{1-[({2,5-dimethyl-4-[4-(trifluoromethyl)benzyl]-3-thienyl}carbonyl)amino]cyclopropyl}benzoic acid diethylamine salt], the exposure entry in series [2] is listed as “doubled the exposure”.
